Tests used:
calnexin = test: Calnexin immunoblot of IB3-1 lysates; type: cell-based, human; settings: IB3-1 cells, increasing concentrations of 4-PBA
Experimental: (§1) 3. Immunoblot analysis. Whole cell lysates were prepared by solubilization with 2% SDS at 95° C. Protein concentration in the lysates was determined using the Bio-Rad DC assay reagents with bovine plasma g-globulin as a standard (Bio-Rad Laboratories, Hercules, Calif.). Equal amounts of protein was resolved on 5, 7, 8, or 9% SDS-polyacrylamide gels. Proteins were transferred to nitrocellulose, and immunodetection was performed as previously described (25). Nonspecific binding was blocked by incubation of the nitrocellulose with 2% gelatin or 10% nonfat day milk. Primary antisera and secondary antibodies were applied in buffer containing 0.4% BSA overnight at 4° C. and for 1 h at room temperature, respectively. Detection of immunoreactivity was performed with the enhanced chemiluminescence reagent (ECL, Amer-sham) and fluorography. Recombinant bovine Hsc70 ([…]) was purchased from Stressgen Biotechnologies for use in constructing a standard curve of Hsc70 immunoreactivity. Immunoblots containing the bovine Hsc70 were probed with the Hsc70-specific polyclonal antiserum.
(§2) Whether 4-PBA would regulate expression of a number of other molecular chaperones in IB3-1 cells (FIG. 2) was assessed next. […] Hsp90 is required for correct folding and function of a number of cellular proteins (16). […]

Hsp90 = Hsp90 immunoblot of IB3-1 lysates; type: cell-based, human; settings: IB3-1 cells, increasing concentrations of 4-PBA
Experimental: as §1
(§3) Whether 4-PBA would regulate expression of a number of other molecular chaperones in IB3-1 cells (FIG. 2) was assessed next. […] Hsp90 is required for correct folding and function of a number of cellular proteins (16). […] Hsp70 (Hsp72) expression is induced by heat shock and the presence of denatured proteins within the eukaryotic cell (16). In Escherichia coli, the Hsp70 homologue DnaK and the Hsp40 homologue DnaJ act to promote protein folding (16). Hdj2 is the member of the Hsp40 family that specifically interacts with and regulates the ATPase activity of Hsc70. Hdj2 also interacts with CFTR during CFTR translation (26).
(§4) FIGS. 2A-2E are more specifically explained as follows. […]
(§5) FIGS. 5A-C are explained in more detail as follows. […] Cellular homogenates were prepared in 2% SDS as described in METHODS, and 5 μg of total cellular protein were analyzed by immunoblot for Hsc70 using rabbit polyclonal antiserum, Hsp90, Hsp70, Hsp40 as described above under General Comments. […]

Hsp70 = Hsp70 immunoblot of IB3-1 lysates; type: cell-based, human; settings: IB3-1 cells
Experimental: as §1, §3
FIGS. 2A-2E are more specifically explained as follows. […] IB3-1 cells were treated as described for FIG. 1. Immunoblotting with 5 μg of IB3-1 SDS lysate protein was performed as described in the foregoing General Comments.
FIGS. 5A-C are explained in more detail as follows. […] A: IB3-1 cells were incubated at 37° C. for 2 days under indicated conditions. Cellular homogenates were prepared in 2% SDS as described in METHODS, and 5 μg of total cellular protein were analyzed by immunoblot for Hsc70 using rabbit polyclonal antiserum, Hsp90, Hsp70, Hsp40 as described above under General Comments. Con, control. B and C: densitometric analysis of Hsc70 expression (B) and Hsp90, Hsp70, and Hsp40 expression (C) was performed as described for FIG. 1. B: means 6 SE of density in 4 independent experiments.

Hsp40 = Hsp40 immunoblot of IB3-1 lysates; type: cell-based, human; settings: IB3-1 cells, increasing concentrations of 4-PBA
Experimental: as §1, §3, §4, §5

Hdj2 = Hdj2 immunoblot of IB3-1 lysates; type: cell-based, human; settings: IB3-1 cells, increasing concentrations of 4-PBA
Experimental: as §1, §2

Hsc70-CFTR complexes = molecular target: T1, Hsc70-CFTR complexes (Homo sapiens, UniProt P11142+P13569, DEL508-508); test: Immunoprecipitation of Hsc70-CFTR complexes from untreated IB3-1 cells with 4-PBA in lysis and wash buffers; type: binding; settings: 1 mM 4-PBA added to RIPA lysis and wash buffers
T1 construct: endogenous in cells; host or cells: IB3-1 (RIPA lysate, immunoprecipitated with anti-Hsc70 serum)
T1 sequence (P13569 with tags, fused parts or gaps DEL508-508): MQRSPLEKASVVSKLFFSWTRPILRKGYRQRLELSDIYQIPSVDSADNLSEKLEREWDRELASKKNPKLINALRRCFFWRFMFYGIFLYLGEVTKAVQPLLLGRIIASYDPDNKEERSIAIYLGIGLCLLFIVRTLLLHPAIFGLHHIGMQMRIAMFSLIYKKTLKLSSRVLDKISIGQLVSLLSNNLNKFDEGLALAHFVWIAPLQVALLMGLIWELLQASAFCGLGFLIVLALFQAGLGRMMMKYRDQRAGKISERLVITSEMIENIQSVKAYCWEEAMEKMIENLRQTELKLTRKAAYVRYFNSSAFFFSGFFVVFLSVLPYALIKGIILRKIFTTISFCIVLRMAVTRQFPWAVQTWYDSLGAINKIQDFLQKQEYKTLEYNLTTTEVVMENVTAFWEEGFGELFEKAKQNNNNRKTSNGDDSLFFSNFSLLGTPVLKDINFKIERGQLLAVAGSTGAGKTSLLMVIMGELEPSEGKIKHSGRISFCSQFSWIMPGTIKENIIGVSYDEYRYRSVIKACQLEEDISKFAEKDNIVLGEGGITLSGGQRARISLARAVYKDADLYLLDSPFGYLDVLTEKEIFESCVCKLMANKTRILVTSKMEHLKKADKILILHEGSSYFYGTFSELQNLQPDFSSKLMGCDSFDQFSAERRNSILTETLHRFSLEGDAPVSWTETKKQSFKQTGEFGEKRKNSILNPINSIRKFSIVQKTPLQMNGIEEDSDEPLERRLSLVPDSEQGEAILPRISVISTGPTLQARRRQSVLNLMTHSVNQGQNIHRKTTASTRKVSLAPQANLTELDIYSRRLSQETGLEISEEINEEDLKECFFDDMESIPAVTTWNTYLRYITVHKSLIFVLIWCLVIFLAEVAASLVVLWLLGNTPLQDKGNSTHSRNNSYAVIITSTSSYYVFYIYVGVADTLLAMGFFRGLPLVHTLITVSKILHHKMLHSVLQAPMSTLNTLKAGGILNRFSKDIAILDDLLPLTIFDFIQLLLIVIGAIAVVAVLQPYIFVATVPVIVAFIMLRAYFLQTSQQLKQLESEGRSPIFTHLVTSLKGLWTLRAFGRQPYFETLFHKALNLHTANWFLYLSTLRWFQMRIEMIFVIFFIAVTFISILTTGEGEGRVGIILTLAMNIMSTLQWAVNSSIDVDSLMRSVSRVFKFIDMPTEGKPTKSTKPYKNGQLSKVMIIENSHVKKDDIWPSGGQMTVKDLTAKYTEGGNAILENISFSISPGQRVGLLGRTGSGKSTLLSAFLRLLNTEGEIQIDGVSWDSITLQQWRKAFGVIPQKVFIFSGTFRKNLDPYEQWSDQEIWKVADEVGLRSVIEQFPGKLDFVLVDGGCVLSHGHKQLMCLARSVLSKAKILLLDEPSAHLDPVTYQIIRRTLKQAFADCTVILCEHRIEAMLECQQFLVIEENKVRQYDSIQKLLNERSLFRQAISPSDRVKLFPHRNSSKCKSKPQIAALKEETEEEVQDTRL
T1 sequence (P11142 2-646 limits assumed, stated change not applied): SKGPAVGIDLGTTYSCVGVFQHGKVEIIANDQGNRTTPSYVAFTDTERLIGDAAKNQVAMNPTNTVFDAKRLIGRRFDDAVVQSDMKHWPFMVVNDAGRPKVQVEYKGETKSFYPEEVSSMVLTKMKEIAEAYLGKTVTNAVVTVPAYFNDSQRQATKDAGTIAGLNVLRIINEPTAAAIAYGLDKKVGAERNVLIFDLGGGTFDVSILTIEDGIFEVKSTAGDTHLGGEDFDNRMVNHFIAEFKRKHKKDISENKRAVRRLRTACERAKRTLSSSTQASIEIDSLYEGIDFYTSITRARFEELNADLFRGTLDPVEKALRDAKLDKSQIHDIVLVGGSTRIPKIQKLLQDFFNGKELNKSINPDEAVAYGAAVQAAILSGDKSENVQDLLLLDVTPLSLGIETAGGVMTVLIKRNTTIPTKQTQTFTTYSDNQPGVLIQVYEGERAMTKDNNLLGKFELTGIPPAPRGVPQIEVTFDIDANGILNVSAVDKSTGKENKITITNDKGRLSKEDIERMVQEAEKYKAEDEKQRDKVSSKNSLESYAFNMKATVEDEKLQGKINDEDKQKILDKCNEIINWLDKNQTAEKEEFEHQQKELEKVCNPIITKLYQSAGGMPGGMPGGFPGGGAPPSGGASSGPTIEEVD
Experimental: 5. Immunoprecipitation. Cultured cells were solubilized by incubation for 1 h at 4° C. in RIPA[50 mM Tris-Cl (pH8.0), 150 mM NaCl, 1% Triton X-100 (Bio-Rad or Fisher Scientific), 1% sodium deoxycholate (Sigma), and protease inhibitor cocktail (Sigma; used at 1:1,000 final dilution)]. Solubilized cells were then homogenized by passage 10 times through a 20-gauge needle and cleared by centrifugation at 15,000 g for 20 min at 4° C. Protein concentration was determined using the Bio-Rad DC reagents as above. Polyclonal Hsc70 antiserum was added to the cell lysates (2 μl/250 μg total protein, with equal amounts of protein at equal final concentrations for each condition within an experiment) and incubated at 4° C. over-night with gentle agitation. Immune complexes were captured with protein A-Sepharose 4B (Pharmacia Biotechnologies, Piscataway, N.J.) that had been preabsorbed with BSA for 45 min at 4° C. […]
The decrease in CFTR recovered by immunoprecipitation in proportion to the decrease in Hsc70 is consistent with 4-PBA not directly influencing the binding affinity of CFTR and Hsc70. This was further assessed by immunoprecipitating Hsc70-CFTR complexes from untreated IB3-1 cells either with or without 1 mM 4-PBA added to the RIPA lysis and wash buffers.

CFTR [1] = test: CFTR immunoblot with anti-CFTR antibody 181 in IB3-1 cells; type: cell-based, human; settings: increasing concentrations of 4-phenylbutyrate (FIG. 14)
Experimental: as §1
Control cells at 37° C. show band B CFTR, but virtually undetectable band C CFTR. These cells as expected show very little Hsp70, the heat shock inducible chaperone. At 27° C., a lower temperature, there is very little Hsp70 as expected, but as expected, there has been induction of band C CFTR.

CFTR [2] = settings: IB3-1 cells; previously shown (ref. 30); cited from earlier work
CFTR [3] = settings: homozygous ΔF508 patients taking the drug for 1 week; Rubenstein et al. 1998; cited from earlier work

O=C(O)CCCc1ccccc1 [4-PBA, 4-phenylbutyric acid]
expression of calnexin (calnexin): did not affect
expression of Hsp90 (Hsp90): did not affect
expression of Hsp70 (Hsp70; increasing concentrations of 4-PBA (Example 1)): did not affect
Hsp70 expression (Hsp70; increasing concentrations of 4-phenylbutyrate (Example 11, FIG. 14)): induces Hsp70 in a dose-dependent manner
expression of Hsp40 (Hsp40): did not affect
expression of Hdj-2 (Hdj2): did not affect
recovery of Hsc70 and associated CFTR (Hsc70-CFTR complexes): unaltered
band C CFTR (CFTR [1]): promotes appearance of band C CFTR
4-PBA concentration leading to increased overall expression and appearance of mature CFTR (CFTR [2]): > 0.1 mM
chloride transport in nasal potential difference measurements (CFTR [3]): increase chloride transport

— patent US7557144B1, “Modulation of protein expression using carbocyclic aryl alkenoic acid derivatives” (The Johns Hopkins University, priority 2000, dated 2009)
